According to patent US10150737B2, “Compounds for controlling arthropods” (priority 2013, dated 2018):
Like-named read-outs stand apart in the source and are kept apart here.

Assays:
[1] = logP determination by HPLC on a reversed-phase column (C18); type: physicochemical; conditions: for log P: HPLC-MS; for logP^a): HPLC-MS method a)
Ctenocephalides felis = Ctenocephalides felis - oral test; type: in vivo; conditions: application rate 100 ppm in citrated cattle blood; after 2 days
Procedure: (§1) Solvent: dimethyl sulphoxide
For the purpose of producing an appropriate active ingredient formulation, 10 mg of active ingredient are mixed with 0.5 ml of dimethyl sulphoxide. Dilution with citrated cattle blood gives the desired concentration.
About 20 unfed adult cat fleas (Ctenocephalides felis) are placed into a chamber which is closed at the top and bottom with gauze. A metal cylinder whose bottom end is closed with parafilm is placed onto the chamber. The cylinder contains the blood/active ingredient preparation, which can be imbibed by the fleas through the parafilm membrane.
After 2 days, the kill in % is determined. 100% means that all of the fleas have been killed; 0% means that none of the fleas have been killed.

Boophilus microplus = Boophilus microplus - injection test; type: in vivo; conditions: application rate 20 μg/animal, injection into engorged adult female ticks, after 7 days; for pest or weed control at 0.02 mg: Rhipicephalus microplus, 168 h, read-out: efficacy (laying of fertile eggs)
Procedure: as §1
To produce an appropriate active ingredient formulation, 10 mg of active ingredient are mixed with 0.5 ml of solvent and the concentrate is diluted with solvent to the desired concentration.
1 μl of the active ingredient solution is injected into the abdomen of 5 engorged adult female cattle ticks (Boophilus microplus). The animals are transferred into dishes and kept in a climate-controlled room.
Efficacy is assessed after 7 days by laying of fertile eggs. Eggs which are not visibly fertile are stored in a climate-controlled cabinet until the larvae hatch after about 42 days. An efficacy of 100% means that none of the ticks has laid any fertile eggs; 0% means that all the eggs are fertile.

Phaedon cochleariae = Phaedon cochleariae - spray test; type: in vivo; conditions: larvae on Chinese cabbage leaf discs, after 7 days
Procedure: Solvent: 78.0 parts by weight of acetone and 1.5 parts by weight of dimethylformamide
Emulsifier: alkylaryl polyglycol ether
To produce an appropriate active ingredient formulation, 1 part by weight of active ingredient is dissolved using the specified parts by weight of solvent and made up with water containing an emulsifier concentration of 1000 ppm until the desired concentration is attained. To produce further test concentrations, the preparation is diluted with emulsifier-containing water.
Discs of Chinese cabbage leaves (Brassica pekinensis) are sprayed with an active ingredient formulation of the desired concentration and, after drying, populated with larvae of the mustard beetle (Phaedon cochleariae).
After 7 days, efficacy in % is determined. 100% means that all the beetle larvae have been killed; 0% means that no beetle larvae have been killed.

[2] = reversed-phase column (C18), Table I-T3
[3] = HPLC, C18 reversed phase, acetonitrile/water with formic acid, EEC Directive 79/831 Annex V.A8

SMILES	log P [1, 2]	further results
CCS(=O)(=O)c1cc(C(F)(C(F)(F)F)C(F)(F)F)cc(C)c1-n1cc(-c2ccc(Cl)c(C(=O)NC3CC3)c2)cn1 [I-T3-210]	3.9	
CN(C(=O)c1cc(-c2cnn(-c3c(Cl)cc(C(F)(C(F)(F)F)C(F)(F)F)cc3OC(F)(F)F)c2)ccc1Cl)C1CC1 [I-T3-219]	5.1	
CN(C(=O)c1cc(-c2cnn(-c3ccc(C(F)(C(F)(F)F)C(F)(F)F)cc3C(F)(F)F)c2)ccc1Cl)C1CC1 [I-T3-134]	4.9	logP [1, 3]: 4.88; logP^a) ([1]; reversed-phase column (C18)): 4.9
N#CC1(NC(=O)c2cc(-c3cnn(-c4c(Cl)cc(C(F)(C(F)(F)F)C(F)(F)F)cc4OC(F)F)c3)ccc2Cl)CC1 [I-T3-215]	4.1	
Cc1ccc(C(=O)NC2CC2)cc1-c1cnn(-c2c(C)cc(C(F)(C(F)(F)F)C(F)(F)F)cc2C)c1 [I-T3-16]		efficacy (kill) (Ctenocephalides felis): 80%; logP^a) [1]: 4.4; logP^a) [1, 2]: 4.4
CSc1cc(C(F)(C(F)(F)F)C(F)(F)F)cnc1-n1cc(-c2ccc(Cl)c(C(=O)NC3(C#N)CC3)c2)cn1 [I-T3-166]	4.3	
O=C(NC1CC1)c1cc(-c2cnn(-c3c(Cl)cc(C(F)(C(F)(F)F)C(F)(F)F)cc3I)c2)ccc1Cl [I-T3-213]	4.4	
N#Cc1cc(C(F)(C(F)(F)F)C(F)(F)F)cc(Cl)c1-n1cc(-c2cnc(Cl)c(C(=O)NC3CC3)c2)cn1 [I-T3-205]	3.5	
CCS(=O)(=O)c1cc(C(F)(C(F)(F)F)C(F)(F)F)cc(C)c1-n1cc(-c2ccc(Cl)c(C(=O)NC3(C#N)CC3)c2)cn1 [I-T3-209]	3.8	
CN(C(=O)c1cc(-c2cnn(-c3c(Cl)cc(C(F)(C(F)(F)F)C(F)(F)F)cc3OC(F)F)c2)ccc1Cl)C1CC1 [I-T3-216]	4.7	
N#CC1(NC(=O)c2cc(-c3cnn(-c4c(Cl)cc(C(F)(C(F)(F)F)C(F)(F)F)cc4OC(F)F)c3)cnc2Cl)CC1 [I-T3-218]	3.7	
O=C(NC1CC1)c1cc(-c2cnn(-c3c(Cl)cc(C(F)(C(F)(F)F)C(F)(F)F)cc3OC(F)F)c2)ccc1Cl [I-T3-214]	4.3	
N#CC1(NC(=O)c2cc(-c3cnn(-c4c(I)cc(C(F)(C(F)(F)F)C(F)(F)F)cc4OC(F)(F)F)c3)ccc2Cl)CC1 [I-T3-226]	4.6	
O=C(NC1CC1)c1cc(-c2cnn(-c3c(I)cc(C(F)(C(F)(F)F)C(F)(F)F)cc3OC(F)(F)F)c2)ccc1Cl [I-T3-224]	4.7	
Cc1cc(C(F)(C(F)(F)F)C(F)(F)F)cc(C)c1-n1cc(-c2cnc(C3CC3)c(C(=O)N(C)C3CC3)c2)cn1 [I-T3-142]	4.6	logP^a) ([1]; reversed-phase column (C18)): 4.6; efficacy (laying of fertile eggs) (Boophilus microplus): 100%
CC[S+]([O-])c1cc(C(F)(C(F)(F)F)C(F)(F)F)cc(C)c1-n1cc(-c2ccc(Cl)c(C(=O)NC3(C#N)CC3)c2)cn1 (stereo not shown) [I-T3-206]	3.6	
N#Cc1cc(C(F)(C(F)(F)F)C(F)(F)F)cc(Cl)c1-n1cc(-c2cnc(Cl)c(C(=O)NC3(C#N)CC3)c2)cn1 [I-T3-207]	3.5	
N#CC1(NC(=O)c2cc(-c3cnn(-c4ncc(C(F)(C(F)(F)F)C(F)(F)F)cc4SCC(F)(F)F)c3)ccc2Cl)CC1 [I-T3-171]	4.5	efficacy (Phaedon cochleariae; application rate 100 g/ha): 100%
O=C(NC1CC1)c1cc(-c2cnn(-c3c(Cl)cc(C(F)(C(F)(F)F)C(F)(F)F)cc3Cl)c2)cnc1N1CCCC1 [I-T3-135]	4.3	efficacy (kill) (Ctenocephalides felis): 100%; logP^a) ([1]; reversed-phase column (C18)): 4.3
COc1cc(C(F)(F)F)cc(F)c1-n1cc(-c2ccc(Cl)c(C(=O)NC3CC3)c2)cn1 [I-T3-50, 2-chloro-N-cyclopropyl-5-[1-[2-fluoro-6-methoxy-4-(trifluoromethyl)phenyl]pyrazol-4-yl]benzamide]		pest or weed control at 0.02 mg (Boophilus microplus): 100%
CN(C(=O)c1cc(-c2cnn(-c3c(Cl)cc(C(F)(C(F)(F)F)C(F)(F)F)cc3OC(F)F)c2)cnc1Cl)C1CC1 [I-T3-217]	4.2	
CN(C(=O)c1cc(-c2cnn(-c3c(I)cc(C(F)(C(F)(F)F)C(F)(F)F)cc3C(F)(F)F)c2)ccc1Cl)C1CC1 [I-T3-229]	5.1	

SMILES	log P [1, 2]	further results
CCOc1cc(C(F)(C(F)(F)F)C(F)(F)F)cc(OCC)c1-n1cc(-c2cnc(Cl)c(C(=O)N(C)C3CC3)c2)cn1 [I-T3-211]	4.7	
CC[S+]([O-])c1cc(C(F)(C(F)(F)F)C(F)(F)F)cnc1-n1cc(-c2ccc(Cl)c(C(=O)NC3(C#N)CC3)c2)cn1 (stereo not shown) [I-T3-153]	3.7	logP^a) ([1]; reversed-phase column (C18)): 3.7; efficacy (Phaedon cochleariae; application rate 100 g/ha): 100%
Cc1cc(C(F)(C(F)(F)F)C(F)(F)F)cc(C)c1-n1ccc(-c2ccc(Cl)c(C(=O)NC3(C#N)CC3)c2)c1 [I-T46-1]		logP [1, 3]: 4.90
CCS(=O)(=O)c1cc(C(F)(C(F)(F)F)C(F)(F)F)cc(Cl)c1-n1cc(-c2ccc(Cl)c(C(=O)NC3(C#N)CC3)c2)cn1 [I-T3-201]	4.0	
Cc1cc(C(F)(C(F)(F)F)C(F)(F)F)cc(C)c1-c1ccn(-c2ccc(Cl)c(C(=O)NC3CC3)c2)n1 [I-T2-1, 2-chloro-N-cyclopropyl-5-[3-[2,6-dimethyl-4-[1,2,2,2-tetrafluoro-1-(trifluoromethyl)ethyl]phenyl]pyrazol-1-yl]benzamide]		pest or weed control at 0.02 mg (Boophilus microplus): 100%
O=C(NC1CC1)c1cc(-c2cnn(-c3c(Cl)cc(C(F)(C(F)(F)F)C(F)(F)F)cc3C(F)F)c2)ccc1Cl [I-T3-193]	4.4	
NC(=O)C1(NC(=O)c2cc(-c3cnn(-c4c(F)c(F)c(C(F)(F)F)c(F)c4F)c3)ccc2Cl)CC1 [I-T3-194]	2.8	
CC[S+]([O-])c1cc(C(F)(C(F)(F)F)C(F)(F)F)cnc1-n1cc(-c2ccc(Cl)c(C(=O)NC3CC3)c2)cn1 (stereo not shown) [I-T3-157, 2-Chloro-N-cyclopropyl-5-{1-[3-(ethylsulphinyl)-5-(1,1,1,2,3,3,3-heptafluoropropan-2-yl)pyridin-2-yl]-1H-pyrazol-4-yl}benzamide]	3.8	logP^a) ([1]; reversed-phase column (C18)): 3.8
CCSc1cc(C(F)(C(F)(F)F)C(F)(F)F)cc(C)c1-n1cc(-c2ccc(Cl)c(C(=O)NC3(C#N)CC3)c2)cn1 [I-T3-202]	4.5	
CCSc1cc(C(F)(C(F)(F)F)C(F)(F)F)cc(C)c1-n1cc(-c2ccc(Cl)c(C(=O)NC3CC3)c2)cn1 [I-T3-203]	4.6	
NC(=S)C1(NC(=O)c2cc(-c3cnn(-c4c(Cl)cc(C(F)(C(F)(F)F)C(F)(F)F)cc4C(F)(F)F)c3)cnc2Cl)CC1 [I-T3-159]	3.8	logP^a) ([1]; reversed-phase column (C18)): 3.8
N#CC1(NC(=O)c2cc(-c3cnn(-c4c(F)c(F)c(C(F)(F)F)c(F)c4F)c3)ccc2Cl)CC1 [I-T3-188]	3.4	efficacy (Phaedon cochleariae; application rate 500 g/ha): 100%
N#CC1(NC(=O)c2cc(-c3cnn(-c4c(Cl)cc(C(F)(C(F)(F)F)C(F)(F)F)cc4I)c3)ccc2Cl)CC1 [I-T3-212]	4.3	
Nc1c(Cl)cc(C(O)(C(F)(F)F)C(F)(F)F)cc1Cl [2-(4-amino-3,5-dichlorphenyl)-1,1,1,3,3,3-hexafluoropropan-2-ol]		logP [1]: 3.04
CN(C(=O)c1cc(-c2cnn(-c3c(Cl)cc(C(F)(C(F)(F)F)C(F)(F)F)cc3C#N)c2)cnc1Cl)C1CC1 [I-T3-204]	3.9	
N#CC1(NC(=O)c2cc(-c3cnn(-c4c(I)cc(C(F)(C(F)(F)F)C(F)(F)F)cc4C(F)(F)F)c3)ccc2Cl)CC1 [I-T3-228]	4.4	
O=C(NC1CC1)c1cc(-c2cnn(-c3c(I)cc(C(F)(C(F)(F)F)C(F)(F)F)cc3C(F)(F)F)c2)ccc1Cl [I-T3-227]	4.5	
Cc1cc(C(F)(C(F)(F)F)C(F)(F)F)cc(C)c1-n1cc(-c2cc(C(=O)NC3CC3)c(Cl)cc2F)cn1 [I-T3-14]		logP^a) [1]: 4.5; logP^a) [1, 2]: 4.5
CCSc1cc(C(F)(C(F)(F)F)C(F)(F)F)cnc1-n1cc(-c2ccc(Cl)c(C(=O)NC3CC3)c2)cn1 [I-T3-156, 2-Chloro-N-cyclopropyl-5-{1-[3-(ethylsulphanyl)-5-(1,1,1,2,3,3,3-heptafluoropropan-2-yl)pyridin-2-yl]-1H-pyrazol-4-yl}benzamide]	4.7	logP^a) ([1]; reversed-phase column (C18)): 4.7
CN(C(=O)c1cc(-c2cnn(-c3c(I)cc(C(F)(C(F)(F)F)C(F)(F)F)cc3OC(F)(F)F)c2)ccc1Cl)C1CC1 [I-T3-225]	5.2	
CN(C(=O)c1cc(-c2cnn(-c3c(Cl)cc(C(O)(C(F)(F)F)C(F)(F)F)cc3Cl)c2)cnc1Cl)C1CC1 [I-T3-220]	3.4	efficacy (Phaedon cochleariae; application rate 100 g/ha): 100%
CN(C(=O)c1cc(-c2cnn(-c3c(Cl)cc(C(F)(C(F)(F)F)C(F)(F)F)cc3OC(F)(F)F)c2)cnc1Cl)C1CC1 [I-T3-208]	4.6	
